From publication PMC6017564, “Amaryllidaceae Alkaloids as Potential Glycogen Synthase Kinase-3β Inhibitors” (Molecules : A Journal of Synthetic Chemistry and Natural …, 2018)

Target: T1, GSK-3β (Homo sapiens, UniProt P49841)
T1 construct: gene GSK3B
Assay: biochemical
Settings: not given

T1 sequence (P49841 whole entry): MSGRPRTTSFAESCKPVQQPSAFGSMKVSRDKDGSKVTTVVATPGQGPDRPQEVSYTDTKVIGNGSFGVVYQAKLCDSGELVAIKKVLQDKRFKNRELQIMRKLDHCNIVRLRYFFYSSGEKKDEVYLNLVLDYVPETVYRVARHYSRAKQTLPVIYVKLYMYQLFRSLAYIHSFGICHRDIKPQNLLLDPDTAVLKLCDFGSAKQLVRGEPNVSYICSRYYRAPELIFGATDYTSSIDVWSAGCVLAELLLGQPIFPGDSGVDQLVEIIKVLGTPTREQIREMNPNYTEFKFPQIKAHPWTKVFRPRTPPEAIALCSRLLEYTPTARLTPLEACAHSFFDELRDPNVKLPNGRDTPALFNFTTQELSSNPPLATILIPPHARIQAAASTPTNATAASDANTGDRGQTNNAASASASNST

Row | Structure (SMILES) | IC50
1 | O[C@@H]1CC=C2CCN3Cc4cc5c(cc4[C@H]1[C@@H]23)OCO5 [compound 14, Caranine] | 30.8 µM
2 | COc1cc2c(cc1O)C1C(CC=C3CCN(C)C31)OC2=O (stereo not drawn) [compound 23, 9-O-Demethylhomolycorine] | 30 µM
3 | CN1CCC2=CCC3OC(=O)c4cc5c(cc4C3C21)OCO5 (stereo not drawn) [compound 24, Masonine] | 27.8 µM

Target: T1, GSK-3β
Assay: Kinase-Glo luminescent kinase assay, single concentration […]
Type: biochemical
Settings: read-out: % of Inhibition

Row | Structure (SMILES) | inhibition at 50 µM
4 | CO[C@@H]1C=C[C@@]23c4cc5c(cc4CN(C[C@@H]2O)[C@H]3C1)OCO5 [compound 3, Haemanthamine] | 52.4%
5 | COc1cc2c(cc1OC)[C@H]1[C@H]3C(=CC[C@H]1OC2=O)CCN3C [compound 22, Homolycorine] | 54.4%
6 | CCOC1OC2CC=C3CCN(C)C3C2c2cc(OC)c(OC)cc21 (stereo not drawn) [compound 26, O-Ethyllycorenine] | 57.7%
7 | CN1CCC2=CCC3OC(O)c4cc5c(cc4C3C21)OCO5 (stereo not drawn) [compound 27, Oduline] | 57.7%

Target: T1, GSK-3β
Assay: biochemical
Design: Kinase-Glo luminescent ATP-consumption assay, human recombinant GSK-3beta, GSM peptide substrate, 1 uM ATP, 30 min 37 C
Settings: not given
Remark: another data set of the same source
Protocol: GSK-3β activity and inhibition were studied according to the luminescent method of Baki et al. using a Kinase-Glo reagent kit. The reaction was performed in 96-well white plates. Each well contained 10 µL of test compound (dissolved in DMSO) at 1 mM concentration and diluted in advance in an assay buffer (pH 7.5) containing 50 mM HEPES, 1 mM EDTA, 1 mM EGTA, and 15 mM magnesium acetate, to the desired concentration, 10 µL of ATP (1 µM final concentration), 10 µL of 100 µM GSM and 10 µL of GSK-3β (20 ng). Ten microliters of either buffer or SB-415286 solution (5 µM final concentration) was added instead of test compound solution in order to obtain the positive (maximum activity) and negative control (total inhibition), respectively. […] The mix was left to react at 37 °C for 30 min. Then the enzymatic reactions were stopped with 40 µL of Kinase-Glo reagent. Glow-type luminescence was recorded after 10 min. The activity is proportional to the difference of the total and consumed ATP. The inhibition activities were calculated on the basis of maximal activity, measured in the absence of inhibitor, and the maximal inhibition was measured in the presence of the reference compound. The IC50 values were calculated using the GraphPad Prism 4.0 program (GraphPad Software Inc., CA, USA). Kinase-Glo Kit was obtained from Promega (Promega Biotech Iberica, S.L., Madrid, Spain), and human recombinant GSK-3β and GSM substrate mimicking Glycogen Muscle Synthase from Merck Millipore (Darmstadt, Germany). Adenosine 5-triphosphate (ATP) disodium salt hydrate, ammonium acetate, ammonium hydroxide, 4-(2-hydroxyethyl)piperazine-1-ethanesulfonic acid (HEPES), ethylene glycol-bis(-aminoethylether)-N,N,N,N-tetraacetic acid tetrasodium salt (EGTA), ethylenediaminetetraacetic acid (EDTA), dimethyl sulfoxide (DMSO), magnesium acetate tetrahydrate, formic acid, and 3-[(3-chloro-4-hydroxyphenyl)amino]-4-(2-nitrophenyl)-1H-pyrrol-2,5-dione were purchased from Sigma-Aldrich (St. Louis, MO, USA). The GSK-3β selective inhibitor SB-415286 ([3-(3-chloro-4-hydroxyphenylamino)-4-(2-nitrophenyl)-1H-pyrrole-2,5-dione]) was purchased from Selleck Chemicals (Houston, TX, USA). Ultrapure water was obtained using a Purite LTD water purification system (Thame, UK). The experiments were carried out using a Victor X3 multimode plate reader (Perkin Elmer, MA, USA). The inhibitory activity of the compounds was first screened at a concentration of 50 µM (Table 1); a synthetic arylindolemaleimide derivative, SB-415286, was used as a positive standard.

Row | Structure (SMILES) | inhibition at 50 µM
8 | CC(=O)O[C@H]1[C@H]2c3cc4c(cc3CN3CCC(=C[C@@H]1O)[C@H]23)OCO4 [1-O-Acetyllycorine (16)] | 49.9 ± 1.9%
9 | COc1c2c(cc3c1OCO3)[C@]13C=C[C@H](OC)C[C@H]1N(C2)C[C@@H]3O [Ambelline (7)] | 38 ± 0.8%
10 | COc1c2c(cc3c1OCO3)[C@@]13CCN(C2)[C@@H]1C[C@@H](O)[C@@H]1O[C@@H]13 [Crinamidine (10)] | 32.1 ± 7.9%
11 | O[C@H]1C=C[C@@]23CCN(Cc4cc5c(cc42)OCO5)[C@@H]3C1 [Crinine (8)] | 39.6 ± 5.4%
12 | COc1cc2c(cc1OC)[C@@H]1[C@H](O)[C@@H](OC)C=C3CCN(C2)[C@H]31 [Galanthine (17)] | 26.4 ± 7.7%
13 | CO[C@@H]1C=C[C@@]23c4cc5c(cc4[C@H](O)N(C[C@@H]2O)[C@H]3C1)OCO5 [Haemanthidine (4)] | 33 ± 2.2%
14 | O[C@H]1C=C[C@@]23c4cc5c(cc4CN(C[C@@H]2O)[C@H]3C1)OCO5 [Hamayne (5)] | 33.9 ± 0.1%
15 | CN1CCC2=C[C@H](O)[C@H]3OC(=O)c4cc5c(cc4[C@H]3[C@@H]21)OCO5 [Hippeastrine (21)] | 10.7 ± 2.5%
16 | COc1cc2c(cc1OC)[C@@H](O)O[C@@H]1CC=C3CCN(C)[C@H]3[C@H]21 [Lycorenine (25)] | 47.6 ± 3.5%
17 | O[C@H]1[C@H]2c3cc4c(cc3CN3CCC(=C[C@@H]1O)[C@H]23)OCO4 [Lycorine (15)] | 32.9 ± 0.2%
18 | COc1ccc2c3c1O[C@H]1CC(=O)C=C[C@@]31CCN(C)C2 [Narwedine (12)] | 37.7 ± 0.3%
19 | COc1cc2c(cc1O)CN1CCC3=CC[C@@H](O)[C@@H]2[C@@H]31 [Norpluviine (19)] | 45 ± 4.3%
20 | CO[C@@H]1C=C[C@@]23c4cc5c(cc4CO[C@]2(O)CN(C)[C@H]3C1)OCO5 [Tazettine (20)] | 49.2 ± 0.3%
21 | COc1c2c(cc3c1OCO3)[C@@]13CCN(C2)[C@@H]1C[C@@H](OC)[C@@H]1O[C@@H]13 [Undulatine (9)] | 43.3 ± 4%
22 | O[C@@H]1CC=C2CCN3Cc4cc5c(cc4[C@H]1[C@@H]23)OCO5 [compound 14, Caranine] | 61.8 ± 9.2%
23 | COc1cc2c(cc1O)C1C(CC=C3CCN(C)C31)OC2=O (stereo not drawn) [compound 23, 9-O-Demethylhomolycorine] | 63.6 ± 1.3%
24 | CN1CCC2=CCC3OC(=O)c4cc5c(cc4C3C21)OCO5 (stereo not drawn) [compound 24, Masonine] | 66 ± 4%
